Measured values as given in patent publication US7183252B2, “Indole peptidomimetics as thrombin receptor antagonists” (Ortho-McNeil Pharmaceutical, Inc., priority 1999, dated 2007).
Where two headings read alike, the source gives them in different places.

Assays:
[1] = target: T1, thrombin receptor (PAR-1) (Homo sapiens, UniProt P25116); assay: In vitro thrombin receptor binding assay (CHRF membranes); settings: tritiated 721-40 radioligand, read-out: Bndg IC50 (Thrombin receptor binding)
T1 construct: CHRF membranes (Jones, Biochim. Biophys. Acta 1992, 1136, 272) are thawed from −70° C; endogenous in cells; host or cells: CHRF cell membranes
T1 sequence (P25116 22-425): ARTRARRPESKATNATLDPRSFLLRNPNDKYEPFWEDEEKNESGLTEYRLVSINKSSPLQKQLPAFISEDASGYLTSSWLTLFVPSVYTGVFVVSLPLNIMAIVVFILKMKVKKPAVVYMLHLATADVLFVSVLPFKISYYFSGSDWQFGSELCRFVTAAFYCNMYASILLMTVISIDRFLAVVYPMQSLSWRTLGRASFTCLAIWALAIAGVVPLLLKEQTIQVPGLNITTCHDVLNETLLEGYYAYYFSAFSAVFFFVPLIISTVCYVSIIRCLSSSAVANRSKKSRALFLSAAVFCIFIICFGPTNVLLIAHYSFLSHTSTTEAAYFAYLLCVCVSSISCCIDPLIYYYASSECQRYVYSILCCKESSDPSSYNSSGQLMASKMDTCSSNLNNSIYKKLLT
Method: In Vitro Thrombin Receptor Binding Assay
CHRF membranes (Jones, Biochim. Biophys. Acta 1992, 1136, 272) are thawed from −70° C., centrifuged at maximum speed for 5 min, washed twice with binding buffer (50 mM HEPES containing 5 mM MgCl2 and 0.1% BSA), and re-suspended in binding buffer (25 μg/[…]). 100 μL of membranes are added to the 24-Wallac plates and delivered to the Tomtech apparatus. In a typical experiment, 6 μL of samples (from a 125 μg/mL intermediary plate, 20% DMSO) and 44 μL buffer are delivered to the plates (final conc. of compounds is 3.7 μg/mL, 0.6% DMSO). Similarly, 6 μL 20% DMSO and 44 μL buffer are delivered to both column 1 (NSB) and column 12 (TB). 10 μL Ser-pFPhe-Har-Leu-Har-Lys-Tyr-NH2 (721–40; 500 μM in deionized water) is added to column 1. 50 μL tritiated 721–40 (specific activity 46 Ci/mmol) is added to all the wells. The plates are mixed well for 20 seconds, incubated for 30 min,and then harvested with 10 mM HEPES/138 mM NaCl using the Skatron harvester. The filters (GF/C Brandel FPXLR 296) are presoaked 3 h in 0.5% polyethylenimine in HEPES/0.1M N-acetylglucosamine) are set in saran wrap and dried for 3 min in the microwave, and placed in sample bags (Wallac 1450-432). 4.5 mL scintillation fluid (Wallac, Betaplate Scint 1205-440) is added. The bags are sealed, placed in filter cassettes (Wallac 1450-104), and analyzed on the microbeta counter.
(§1) Table 7 contains IC50 values (μM) of the compounds in a thrombin receptor binding assay, and IC50 values (μM) against platelet aggregation stimulated by thrombin.

gel-filtered platelets = assay: In vitro inhibition of thrombin-induced gel-filtered platelet aggregation; type: cell-based; settings: human gel-filtered platelets, agonist thrombin 50 μL of 1 unit/mL, read-out: Thrmb IC50 (Thrombin-induced aggregation of gel-filtered platelets)
Method: In Vitro Inhibition of Thrombin-Induced Gel-Filtered Platelet Aggregation Assay
The percentage of platelet aggregation is calculated as an increase in light transmission of compound-treated platelet concentrate vs. control-treated platelet concentrate. Human blood is obtained from drug free, normal donors in tubes containing 0.13M sodium citrate. Platelet rich plasma (PRP) is collected by centrifugation of whole blood at 200×g for 10 min at 25° C. The PRP (5 mL) is gel filtered through Sepharose 2B (bed volume 50 mL), and the platelet count is adjusted to 2×10^7 platelets per sample. The following constituents are added to a siliconized cuvette: concentrated platelet filtrate and Tyrode's buffer (0.14M NaCl, 0.0027M KCl, 0.012M NaHCO3, 0.76 mM Na2HPO4, 0.0055M glucose, 2 mg/mL BSA and 5.0 mM HEPES @ pH 7.4) in an amount equal to 350 μL 50 μL of 20 mM calcium and 50 μL of the test compound. Aggregation is monitored in a BIODATA aggregometer for the 3 min following the addition of agonist (thrombin 50 μL of 1 unit/mL).
as §1

Row | SMILES | IC50 [1] [µM] | IC50 (gel-filtered platelets; Platelet) [µM] | IC50 (gel-filtered platelets) [µM]
1 | Cc1ccccc1Cn1cc(CN2CCCC2)c2ccc(NC(=O)N[C@@H](Cc3cccnc3)C(=O)N[C@@H](CCCNC(=N)N)C(=O)NCc3ccccc3)cc21 [Compound 31] | 8.4 | > 10 | –
2 | COc1ccc(C[C@H](NC(=O)Nc2ccc3c(CN(C)CCCN(C)C)cn(Cc4ccc(F)cc4)c3c2)C(=O)N[C@@H](CCCNC(=N)N)C(=O)NCc2ccccc2)cc1 [Compound 32] | 7.3 | 48.6 | –
3 | COc1ccc(C[C@H](NC(=O)Nc2ccc3c(CNCCCN4CCCC4)cn(Cc4ccc(F)cc4)c3c2)C(=O)N[C@@H](CCCNC(=N)N)C(=O)NCc2ccccc2)cc1 [Compound 33] | 5.4 | 54.7 | –
4 | C=CCOc1ccc(C[C@H](NC(=O)Nc2ccc3c(CN4CCCC4)cn(Cc4cccc(C)c4)c3c2)C(=O)N[C@@H](CCCNC(=N)N)C(=O)NCc2ccccc2)cc1 [Compound 34] | 9.7 | 16.3 | –
5 | CCN(CC)Cc1cn(Cc2ccccc2C)c2cc(NC(=O)N[C@@H](Cc3ccc(N)cc3)C(=O)N[C@@H](CCCNC(=N)N)C(=O)NCc3ccccc3)ccc12 [Compound 35] | 13.1 | 13 | –
6 | Cc1ccccc1Cn1cc(CN2CCCC2)c2ccc(NC(=O)N[C@@H](Cc3ccc(OCc4ccccc4)cc3)C(=O)N[C@@H](CCCN=C(N)N)C(=O)NCc3ccccc3)cc21 [Compound 36] | 16.7 | 6.8 | –
7 | Cc1ccccc1Cn1cc(CN2CCCC2)c2ccc(NC(=O)N[C@@H](Cc3cccc4ccccc34)C(=O)N[C@@H](CCCNC(=N)N)C(=O)NCc3ccccc3)cc21 [Compound 37] | 20.3 | 4.4 | –
8 | N=C(N)NCCC[C@H](NC(=O)[C@H](Cc1ccc2ccccc2c1)NC(=O)Nc1ccc2c(CN3CCCC3)cn(Cc3c(Cl)cccc3Cl)c2c1)C(=O)NCc1ccccc1 [Compound 38] | 33.5 | 2.5 | –
9 | Cc1ccccc1Cn1cc(CN2CCCC2)c2ccc(NC(=O)N[C@@H](Cc3ccc(-c4ccccc4)cc3)C(=O)N[C@@H](CCCNC(=N)N)C(=O)NCc3ccccc3)cc21 [Compound 39] | 21.5 | 3.5 | –
10 | COc1ccc(C[C@H](NC(=O)Nc2ccc3c(CN4CCOCC4)cn(Cc4ccc(F)cc4)c3c2)C(=O)N[C@@H](CCCN=C(N)N)C(=O)NCc2ccccc2)cc1 [Compound 40] | 3.9 | > 10 | –
11 | CCCN(CCC)Cc1cn(Cc2c(Cl)cccc2Cl)c2cc(NC(=O)N[C@@H](Cc3ccc(OC)cc3)C(=O)N[C@@H](CCCNC(=N)N)C(=O)NCc3ccccc3)ccc12 [Compound 41] | 10.4 | 4.8 | –
12 | CCOc1ccc(C[C@H](NC(=O)Nc2ccc3c(CN4CCCC4)cn(Cc4cccc(C)c4)c3c2)C(=O)N[C@@H](CCCNC(=N)N)C(=O)NCc2ccccc2)cc1 [Compound 42] | 2 | 24.7 | –
13 | CCN(CC)Cc1cn(Cc2cccc(C)c2)c2cc(NC(=O)N[C@@H](Cc3ccc(OC(C)C)cc3)C(=O)N[C@@H](CCCNC(=N)N)C(=O)NCc3ccccc3)ccc12 [Compound 43] | 5 | 33.5 | –
14 | COc1ccc(C[C@H](NC(=O)Nc2ccc3c(CN4CCC4)cn(Cc4ccc(F)cc4)c3c2)C(=O)N[C@@H](CCCNC(=N)N)C(=O)NCc2ccccc2)cc1 [Compound 44] | 3.3 | 9.7 | –
15 | COc1ccc(C[C@H](NC(=O)Nc2ccc3c(CNC4CC4)cn(Cc4ccc(F)cc4)c3c2)C(=O)N[C@@H](CCCNC(=N)N)C(=O)NCc2ccccc2)cc1 [Compound 45] | 13.9 | > 10 | –
16 | N=C(N)NCCC[C@H](NC(=O)[C@H](Cc1ccc(F)c(F)c1)NC(=O)Nc1ccc2c(CN3CCCC3)cn(Cc3c(Cl)cccc3Cl)c2c1)C(=O)NCc1ccccc1 [Compound 46, L-Argininamide, 3,4-difluoro-N-[[[1-[(2,6-dichlorophenyl)methyl]-3-(1-pyrrolidinylmethyl)-1H-indol-6-yl]amino]carbonyl]-L-phenylalanyl-N-(phenylmethyl)-] | 0.47 | – | 0.28
17 | N=C(N)NCCC[C@H](NC(=O)[C@H](Cc1cccc(F)c1)NC(=O)Nc1ccc2c(CN3CCCC3)cn(Cc3c(Cl)cccc3Cl)c2c1)C(=O)NCc1ccccc1 [Compound 47] | 1.2 | 0.88 | –
18 | Cc1ccccc1Cn1cc(CN2CCCC2)c2ccc(NC(=O)N[C@@H](Cc3ccc(Cl)cc3)C(=O)N[C@@H](CCCNC(=N)N)C(=O)NCc3ccccc3)cc21 [Compound 48] | 7.6 | 0.5 | –
19 | N=C(N)NCCC[C@H](NC(=O)[C@H](Cc1ccc([N+](=O)[O-])cc1)NC(=O)Nc1ccc2c(CN3CCCC3)cn(Cc3ccc(F)cc3)c2c1)C(=O)NCc1ccccc1 [Compound 49] | 1 | 6.1 | –
20 | Cc1ccccc1Cn1cc(CN2CCCC2)c2ccc(NC(=O)N[C@@H](Cc3c(F)c(F)c(F)c(F)c3F)C(=O)N[C@@H](CCCNC(=N)N)C(=O)NCc3ccccc3)cc21 [Compound 50] | 7.6 | 0.8 | –
21 | N=C(N)NCCC[C@H](NC(=O)[C@H](Cc1ccccc1F)NC(=O)Nc1ccc2c(CN3CCCC3)cn(Cc3c(Cl)cccc3Cl)c2c1)C(=O)NCc1ccccc1 [Compound 51] | 0.8 | 0.68 | –
22 | N#Cc1ccc(C[C@H](NC(=O)Nc2ccc3c(CN4CCCC4)cn(Cc4c(Cl)cccc4Cl)c3c2)C(=O)N[C@@H](CCCNC(=N)N)C(=O)NCc2ccccc2)cc1 [Compound 52] | 5.3 | 0.48 | –
23 | N=C(N)NCCC[C@H](NC(=O)[C@H](Cc1cscn1)NC(=O)Nc1ccc2c(CN3CCCC3)cn(Cc3c(Cl)cccc3Cl)c2c1)C(=O)NCc1ccccc1 [Compound 53] | 8.8 | 1 | –
24 | Cc1ccccc1Cn1cc(CN2CCCC2)c2ccc(NC(=O)N[C@@H](Cc3cccc(C(F)(F)F)c3)C(=O)N[C@@H](CCCNC(=N)N)C(=O)NCc3ccccc3)cc21 [Compound 54] | 16 | 0.5 | –
25 | N=C(N)NCCC[C@H](NC(=O)[C@H](Cc1ccc(F)c(F)c1)NC(=O)Nc1ccc2c(CN3CCCC3)cn(Cc3ccccc3Cl)c2c1)C(=O)NCc1ccccc1 [Compound 55] | 11.3 | 0.34 | –
26 | N=C(N)NCCC[C@H](NC(=O)[C@@H](NC(=O)Nc1ccc2c(CN3CCCC3)cn(Cc3c(Cl)cccc3Cl)c2c1)C(c1ccccc1)c1ccccc1)C(=O)NCc1ccccc1 [Compound 56] | 11.4 | 3.8 | –
27 | Cc1ccccc1Cn1cc(CN2CCCC2)c2ccc(NC(=O)N[C@@H](Cc3ccc(F)c(F)c3)C(=O)N[C@@H](CCCNC(=N)N)C(=O)NCCc3ccccc3)cc21 [Compound 57] | 0.3 | 1.8 | –
28 | CCCCN(CCCC)Cc1cn(Cc2ccccc2C)c2cc(NC(=O)N[C@@H](Cc3cc(F)cc(F)c3)C(=O)N[C@@H](CCCNC(=N)N)C(=O)NCc3ccccc3)ccc12 [Compound 58] | 1.5 | > 10 | –
29 | N=C(N)NCCC[C@H](NC(=O)[C@H](Cc1ccc(F)c(F)c1)NC(=O)Nc1ccc2c(CN3CCCC3)cn(Cc3c(Cl)cccc3Cl)c2c1)C(=O)NCc1ccc(F)cc1 [Compound 59] | 0.14 | 0.88 | –
30 | N=C(N)NCCC[C@H](NC(=O)[C@H](Cc1ccc(F)c(F)c1)NC(=O)Nc1ccc2c(CN3CCCC3)cn(Cc3ccc(F)cc3)c2c1)C(=O)NC(c1ccccc1)c1ccccc1 [Compound 60] | 2.8 | 0.93 | –
